The text below walks through data of patent US9394228B2, “Methods of treatment using lipid compounds” (PRONOVA BIOPHARMA NORGE AS, priority 2010, dated 2016).

For experiment [1], the target named is T1, PPAR[…] (positive control GW7647, i.e. PPARα) (Homo sapiens, UniProt Q07869).
T1 construct: expressed in transfected cells; host or cells: HEK293
The experiment can be described thus: PPAR activation in vitro, mammalian-one-hybrid (M1H) GAL4-PPAR-LBD luciferase reporter assay. The format is cell-based. The following applies: efficacy of positive control GW7647 set to 100%; HEK293 cells; first PPAR[…] column. How it is done: (§1) Compounds (A)-(C) and a positive control were tested at six different concentrations in duplicate:
(§2) The positive controls were GW7647 (PPAR[…]), GW501516 (PPAR[…]) and rosiglitazone (PPAR[…]). The efficacy of the controls were set to 100%.
(§3) Assays were carried out in vitro using mammalian-one-hybrid assays (M1H) comprising GAL4-DNA binding domain-PPAR-LBD fusion constructs in conjunction with 5×GAL4-sites driven Photinus pyralis luciferase reporter constructs in transiently transfected HEK293 cells. The cells were transfected 4-6 hours and grown overnight before compounds were added. Compound incubation was 16-20 hours. Renilla reniformis luciferase, driven by a constitutive promoter, was included as internal control to improve experimental accuracy.
A general note: In a reporter assay the amount or activity of a reporter protein is the signal.

Experiment [2] concerns the target T2, PPAR[…] (positive control GW501516, i.e. PPARδ) (Homo sapiens, UniProt Q03181).
T2 construct: expressed in transfected cells; host or cells: HEK293
T2 sequence (Q03181 211-439 limits assumed): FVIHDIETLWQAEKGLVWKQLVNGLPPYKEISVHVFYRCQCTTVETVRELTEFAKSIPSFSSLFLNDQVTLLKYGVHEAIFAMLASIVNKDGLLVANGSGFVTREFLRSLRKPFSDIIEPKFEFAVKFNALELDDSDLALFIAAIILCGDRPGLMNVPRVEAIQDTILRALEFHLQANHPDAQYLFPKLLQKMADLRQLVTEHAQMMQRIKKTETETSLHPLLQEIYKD
T2 sequence (P04386 1-147 partner limits assumed): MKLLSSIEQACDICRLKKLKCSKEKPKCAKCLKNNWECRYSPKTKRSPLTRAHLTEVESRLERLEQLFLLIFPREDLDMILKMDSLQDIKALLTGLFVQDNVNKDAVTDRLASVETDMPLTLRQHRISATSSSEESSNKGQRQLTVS
The experiment is described as above. The following applies: second PPAR[…] column; for Efficacy: efficacy of positive control GW501516 set to 100%, HEK293 cells; for EC50: transiently transfected HEK293 cells, compound incubation 16-20 hours. The format is cell-based. How it is done: as §1, §2, §3

The target of experiment [3] is T3, PPAR[…] (positive control rosiglitazone, i.e. PPARγ) (Homo sapiens, UniProt P37231).
T3 construct: expressed in transfected cells; host or cells: HEK293
T3 sequence (P37231 238-503 limits assumed): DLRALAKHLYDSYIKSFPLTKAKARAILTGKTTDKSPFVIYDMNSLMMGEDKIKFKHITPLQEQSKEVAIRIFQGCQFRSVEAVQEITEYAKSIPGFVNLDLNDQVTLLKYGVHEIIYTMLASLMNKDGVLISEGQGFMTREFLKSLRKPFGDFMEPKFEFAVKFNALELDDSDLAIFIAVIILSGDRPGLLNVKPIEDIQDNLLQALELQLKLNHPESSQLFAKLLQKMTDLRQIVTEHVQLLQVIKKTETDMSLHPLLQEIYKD
T3 sequence (P04386 1-147 partner limits assumed): as the sequence (P04386 1-147 partner limits assumed) above
Described as above. It is filed as cell-based. The following applies: efficacy of positive control rosiglitazone set to 100%; HEK293 cells; third PPAR[…] column. How it is done:
as §1, §2, §3

Experiment [4] relates to APOE*3Leiden.CETP transgenic mice. In words: Effects on in vivo atherosclerosis development in a mouse model. An excerpt:
The APOE*3Leiden.CETP transgenic mouse has proven to be representative of the human situation with respect to plasma lipoprotein levels and its responsiveness to hypolipidemic drugs (like statins, fibrates etc.) and nutritional intervention. APOE*3Leiden.CETP mice develop atherosclerotic lesions in the aorta resembling those found in humans with respect to cellular composition and morphological and immunohistochemical characteristics.
Female APOE*3Leiden.CETP mice were put on a Western-type diet (WTD) with 0.15% cholesterol and 15% saturated fat; resulting in plasma cholesterol levels of about 13-15 mM. After a 3 week run-in period on the WTD, the mice were sub-divided into 4 groups of 15 mice, control (no treatment), Compound A of Example 2 above, fenofibrate and a low-cholesterol diet. The groups were matched for body weight, plasma total cholesterol (TC), HDL cholesterol (HDL-C) and triglycerides (TG) after 4 h fasting (t=0).
The test substances were administered orally as admix to the Western-type diet. To facilitate the mixing of the compounds sunflower oil was added to a total oil volume of 10 mL/kg diet. Compound (A) was tested at initially at 0.1 mmol/kg bw/day and reduced to 0.04 mmol/kg bw/day at 4 weeks; the initial dose was based on a prior dose-finding study to establish the required dosage that would reduce VLDL/LDL cholesterol by 25-30%. The fenofibrate dose was initially 10 mg/kg bw/day, and later reduced to 4.2 mg/kg bw/day to parallel reductions in VLDL/LDL cholesterol induced by Compound A.
At t=0 and t=17 weeks, blood samples were taken after a 4 hour-fast period to measure plasma cholesterol and triglycerides. Atherosclerosis development in aortic root (total lesion area) was measured at sacrifice.
The results for total cholesterol (mM), HDL cholesterol (mM), lesion area (μm^2*1000) and undiseased segments (%) are shown in FIGS. 4, 5, 6, and 7, respectively.

T1 sequence (Q07869 239-466 limits assumed, species assumed): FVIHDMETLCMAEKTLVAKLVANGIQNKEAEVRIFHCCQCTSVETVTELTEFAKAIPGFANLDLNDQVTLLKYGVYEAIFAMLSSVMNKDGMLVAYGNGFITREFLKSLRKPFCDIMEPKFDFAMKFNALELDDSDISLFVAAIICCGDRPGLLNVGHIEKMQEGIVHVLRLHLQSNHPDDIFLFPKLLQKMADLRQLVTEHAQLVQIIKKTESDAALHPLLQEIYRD
T1 sequence (P04386 1-147 partner limits assumed, species assumed): as the sequence (P04386 1-147 partner limits assumed) above

Consider `CC/C=C\C/C=C\C/C=C\C/C=C\C/C=C\CCCCOC(CC)C(=O)O` (stereo not shown) [Compound A, 2-((5Z,8Z,11Z,14Z,17Z)-icosa-5,8,11,14,17-pentaenyloxy)butanoic acid], for which the Efficacy was 82% in experiment [1], “inactive” in experiment [2] and 22% in experiment [3]. Besides, the EC50 result in experiment [2] is “inactive”. Moreover, in experiment [4] (APOE*3Leiden.CETP transgenic mice, overall conclusion), the development of atherosclerosis result was “inhibits”. For the same compound, the lesion area result in experiment [4] (aortic root, at sacrifice, as compared to control, p<0.003) is recorded as “significantly decreased”. Besides, in experiment [4] (as compared to control, p<0.001, oral admix to Western-type diet, 0.1 then 0.04 mmol/kg bw/day, t=17 weeks), the total cholesterol result is listed as “significantly decreased”. Also, the HDL cholesterol result in experiment [4] (as compared to control, p<0.003, oral admix to Western-type diet, 0.1 then 0.04 mmol/kg bw/day, t=17 weeks) was “significantly increased”.
Turning to `CC/C=C\C/C=C\C/C=C\C/C=C\C/C=C\CCCCO[C@@H](CC)C(=O)O` [Compound B, (S)-2-((5Z,8Z,11Z,14Z,17Z)-icosa-5,8,11,14,17-pentaenyloxy)butanoic acid], the Efficacy in experiment [1] is 86%; in experiment [2], “inactive”; in experiment [3], 27%. The EC50 entry in experiment [2] is “inactive”.
For the compound `CC/C=C\C/C=C\C/C=C\C/C=C\C/C=C\CCCCO[C@H](CC)C(=O)O` [Compound C, (R)-2-((5Z,8Z,11Z,14Z,17Z)-icosa-5,8,11,14,17-pentaenyloxy)butanoic acid], the Efficacy in experiment [1] is 54%; in experiment [2] it was “inactive”; in experiment [3] it was 25%. The EC50 result in experiment [2] was “inactive”.
